Test results reported in patent publication US4659716A, “Antihistaminic 8-(halo)-substituted 6,11-dihydro-11-(4-piperidylidene)-5H-benzo[5,6]cyclohepta[1,2-b]pyridin es” (Schering Corporation, priority 1986, dated 1987).

Assays:
[1] = test system: behavior, neurologic function and autonomic function in mice; settings: po; score of 2 or greater in at least 3 of 6 animals
Description: A semiquantitative scoring scale was used where signs normally present (e.g., spontaneous activity, alertness, pupil size) were assigned a "normal" score of 0 and scores of +1, +2 and +3 indicated slight, moderate and marked increases and scores of -1, -2 and -3 indicated slight, moderate and marked decreases from "normality". When a sign occurred that is not normally present (e.g., convulsions, tremors), its magnitude was graded on a 1-3 scale. Each treatment group consisted of 6 animals and evaluations were conducted 1 hour after dosing. Additional observations for lethality were made for up to 24 hours after dosing. Incidence is defined as the observation occurring in an animal with a score of 2 or greater according to the scoring method defined above.
^a Minimal effective dose, defined as the lowest dose that produced a

[2] = test system: histamine-induced paw edema; test: Histamine-induced paw edema in mice (oral); format: in vivo, mice (male CF1)
Experimental: For example, the ability of the compounds to reduce histamine-induced paw edema in mice may be measured by use of the following method.
Male CF1 mice, 25-30 g, are housed under conditions of controlled temperature and humidity with a 12 hour dark/light cycle. Food and water are allowed ad libitum. The mice are randomly assigned to the treatment groups. One hour after treatment with a compound of the invention or vehicle, the mice are lightly anesthetized with ether. The left hind paw of each mouse serves as a control and is injected with 25 μl of isotonic saline. The right hind paw serves as the experimental paw and is injected with 25 μl of isotonic saline containing 13 μg histamine dihydrochloride. Thirty minutes later the mice are killed by cervical dislocation and both hind paws of each mouse are removed by cutting at the tarsal joint. The weight of each paw is recorded and the difference in weight between the compound-treated and the placebo-treated groups is evaluated using Student's "t" test. The ED50 values (the dose causing 50% inhibition of histamine-induced edema) and 95% confidence limits are determind by the Linear Least Square Dose-Response method [Brownlee, K. A., "Statistical Theory And Methodology In Science and Engineering", 2nd Ed., J. Wiley and Sons, New York, 1965, pp. 346-349].

[3] = test system: histamine-induced lethality; test: Prevention of histamine-induced lethality in guinea pigs (A); format: in vivo, guinea pigs (female albino); settings: Cavia porcellus; oral, 1 hour prior to i.v. histamine 1.1 mg/kg; read-out: Antihistaminic Activity, A. G. pig. p.o. ED50
Experimental: A. Prevention of histamine-induced lethality in guinea pigs. […] Doses of the antagonists were administered orally to separate groups of fasted animals 1 hour prior to the challenge with histamine and protection from death recorded for 30 minutes after histamine. ED50 values were determined for each drug by […].

[4] = Antagonism of physostigmine lethality (B); format: in vivo, mice; settings: mouse, physostigmine-induced lethality; oral, unit inferred; read-out: ED50 in the physostigmine-induced lethality test
Experimental: B. Antagonism of Physostigmine Lethality. […] Physostigmine salicylate (b 1.0 mg/kg s.c.) produces 100% lethality when administered to mice grouped 10 per plastic cage (11×26×13 cm). Test agents were administered orally 30 minutes prior to physostigmine. The number of survivors were counted 20 minutes after physostigmine administration.

[5] = Toxicity (no method given); settings: in vivo
CNS activity = test: CNS test procedures B, C and D taken together; format: in vivo, mice; settings: oral
Experimental: C. […] Mice were injected with 0.6% aqueous acetic acid at 10 mg/kg i.p. 15 minutes after oral administration of the test drug. The number of writhes for each animal was counted during a 10 minute period starting 3 minutes after acetic acid treatment. A writhe was defined as a sequence of arching of the back, pelvic rotation and hind limb extension.
One hour after oral administration of the test drug or vehicle, mice were administered a 13 mA, 60 cycle a.c. electroconvulsant shock (ECS) for 0.2 seconds via corneal electrodes.

Clc1ccc2c(c1)CCc1cccnc1C2=C1CCNCC1 [Compound A, 8-chloro-6,11-dihydro-11-(4-piperidylidene)-5H-benzo[5,6]cyclohepta[1,2-b]pyridine]
MED, Lethality [1]: 300 mg/kg | Increased Paw Weight, Mean ([2]; oral dose 0.03 mg/kg, 8 animals): 19.9 mg | Increased Paw Weight, Mean ([2]; oral dose 0.1 mg/kg, 7 animals): 13.0 mg | Increased Paw Weight, Mean ([2]; oral dose 0.3 mg/kg, 8 animals): 6.1 mg | Increased Paw Weight, Mean ([2]; oral dose 1.0 mg/kg, 8 animals): 2.5 mg

Fc1ccc2c(c1)CCc1cccnc1C2=C1CCNCC1 [Compound B, 8-fluoro-6,11-dihydro-11-(4-piperidylidene)-5H-benzo[5,6]cyclohepta[1,2-b]pyridine]
ED50 [3]: 0.09 mg/kg | ED50 ([2]; Mus musculus, po, 1 h): < 3 mg/kg | ED50 [4]: > 320 mg/kg | Toxicity [5]: very low toxicity | Activity in all of the CNS test procedures (CNS activity): relatively inactive
